{
  "source": "paper PMC3092291",
  "about": "(2011)",
  "biological_target": "T1, IspH (LytB) (Aquifex aeolicus, UniProt O67625)",
  "T1 sequence (O67625 1-289)": "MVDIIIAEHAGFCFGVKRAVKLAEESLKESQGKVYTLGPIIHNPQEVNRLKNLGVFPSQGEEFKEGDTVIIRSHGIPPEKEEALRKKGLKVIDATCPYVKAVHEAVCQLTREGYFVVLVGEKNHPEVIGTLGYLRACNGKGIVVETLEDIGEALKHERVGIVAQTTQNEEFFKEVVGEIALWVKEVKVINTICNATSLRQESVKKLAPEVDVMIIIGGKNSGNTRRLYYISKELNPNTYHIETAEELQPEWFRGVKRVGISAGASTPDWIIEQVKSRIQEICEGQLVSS",
  "assay": "HYSCORE/CW-EPR with […] and […]-labeled IspH",
  "format": "biochemical",
  "data": [
    {"substance": "BPH-293 [compound 7]", "values": [
      {"measurement": "IC50", "value": 38, "unit": "µM"}
    ]}
  ]
}
